A short description of data set [1]: Binding affinity to Escherichia coli MRE600 50S ribosome after 80 hrs by equilibrium dialysis method.
Data set [2] can be described thus: Inhibition of coupled transcription-translation in Escherichia coli UC6782 […] using ortho-nitrophenyl-beta-galactoside as substrate after 30 mins by spectrophotometry.
The nature of data set [3]: Binding affinity to Escherichia coli MRE600 50S ribosome after 10 mins by radioligand binding assay.
In data set [4] the target is Bacterial 70S ribosome. The data set can be described thus: Binding affinity to Escherichia coli A19 70S ribosome after 30 mins by scintillation counting method.
A short description of data set [5]: Binding affinity to Escherichia coli A19 50S ribosome after 30 mins by scintillation counting method.
Data set [6] is described as follows: Drug metabolism in human MDA231 cells assessed as polyglutamylation of compound at 2 uM after 24 hrs by liquid scintillation counting method. Format: ADME, cell-based. The note with it: MDA231 (MDA-MB-231) cells, read-out: Drug metabolism.
A short description of data set [7]: Drug metabolism in human ZR-75B cells assessed as polyglutamylation of compound at 2 uM after 24 hrs by liquid scintillation counting method. Format: ADME, cell-based. The note with it: read-out: Drug metabolism.
Data set [8] is described as follows: Drug metabolism in human MCF7 cells assessed as polyglutamylation of compound at 2 uM after 24 hrs by liquid scintillation counting method. Type of data set: ADME, cell-based. The note with it: read-out: Drug metabolism.

Experimental findings from ChEMBL document CHEMBL4024745, “Causes and Significance of Increased Compound Potency in Cellular or Physiological Contexts” (J Med Chem, 2018) are described below.

For the compound `CCC[C@@H]1C[C@@H](C(=O)N[C@@H]([C@H]2O[C@H](SC)[C@H](O)[C@@H](O)[C@H]2O)[C@@H](C)O)N([14CH3])C1`, the Kd – broadly, the constant that tells how readily two partners part at equilibrium – in data set [1] turned out to be 34000 nM.
For `CC(=O)NC[C@H]1CN(c2ccc(N3CCN(C(=O)CO)CC3)c(F)c2)C(=O)O1` [EPEREZOLID], the figures for the IC50 in data set [2] and in data set [3] were 1800 nM and 20000 nM, respectively.
In the case of `COC[C@H]1O[C@@H](O[C@@H]2OC[C@@H]3O[C@@]4(OC[C@@H](OC(=O)c5c(C)cc(O)cc5O)[C@@H]5OCO[C@H]54)O[C@H]3[C@H]2O)[C@@H](OC)[C@@H](O)[C@@H]1O[C@@H]1O[C@H](C)[C@H](OC)[C@H](O[C@@H]2O[C@H](C)[C@H]3O[C@]4(C[C@@H](O)[C@H](O[C@H]5C[C@@H](O[C@H]6C[C@](C)([N+](=O)[O-])[C@@H](OC)[C@H](C)O6)[C@H](OC(=O)c6c(C)c(Cl)c(O)c(Cl)c6OC)[C@@H](C)O5)[C@@H](C)O4)O[C@]3(C)[C@@H]2O)[C@H]1O` [EVERNIMICIN], the values for the Kd in data set [4] and in data set [5] were 84 nM and 160 nM, respectively.
Take `CN(Cc1cnc2nc(N)nc(N)c2n1)c1ccc(C(=O)N[C@@H](CCC(=O)O)C(=O)O)cc1` [METHOTREXATE]: the metabolised at 24 h, 2 µM in data set [6] is 32%; in data set [7], 87.6%; in data set [8], 55.4%.
